# From article PMC6826616, “Topical 2′-Hydroxyflavanone for Cutaneous Melanoma” (Cancers, 2019)
# Experiments:
# B16-F10 cells = experiment: Western blot densitometry of whole-cell lysates, B16-F10; type: cell-based, mouse; settings: 48 h
# Experimental: […] Cells were harvested and lysates prepared for Western blot using a radioimmunoprecipitation assay (RIPA) buffer with a protease (complete ULTRA) and phosphatase inhibitor (PhosSTOP) cocktail (Sigma-Aldrich, St. Louis, MO, USA). […] Proteins were transferred to nitrocellulose membrane, and nonspecific binding was minimized with 1× clear milk blocking buffer +0.1%TWEEN 20 (ThermoFisher Scientific, Waltham, MA, USA) for 1 h at room temperature. All primary antibodies were purchased from Santa Cruz Biotechnology except mouse monoclonal, TNF-α (Invitrogen), (1:1000), in 1× clear milk +0.1% TWEEN 20 overnight at 4 °C. Secondary antibody from Santa Cruz Biotech (1:2000) was incubated for 1 h at room temperature in 1× clear milk, 0.1% TWEEN 20.
# (§1) Supplemental data for Fig. 2C. Caspase 9
# (§2) Numbers below of each blot represent protein 1.0 1.2 0.5 ND ND ND ND ND ND band intensity ratios to adequate controls after Procaspase 3 […]
# (§3) RAL BP- 1 and apoptosis enzymes in SK-Mel-24, B16F0 17kD Active caspase 3 […]
# (§4) 48h. Cells were plated in complete growth medium. After overnight, cells were treated with different doses of 2HF, and PARP-1 incubated for 48h. Total cell lysates (40 µg/lane) were […]
# (§5) buffer. Proteins were transferred to nitrocellulose C-terminal cleaved membrane, nonspecific binding was done in 1X clear milk, PARP~89kDa
# (§6) +0.1%T20 (Invitrogen) for 1h at room temperature. All primary antibodies were from (mouse monoclonal, 1.0 0.8 0.9 1.0 0.9 ND 1.0 1.1 ND Santacruze Biotechnology (1:1000), in 1X clear milk
# (§7) +0.1%T20 overnight in 40C. Secondary antibody from N-terminal cleaved
# (§8) Santacruze Biotech (1:2000) for 1h at room temperature in PARP~24kDa […]
# (§9) Supplemental Figure 7 Supplemental data for Fig. 5.
# (§10) B16F0 SK-Mel- 24 B16F10Numbers below of each blot represent protein band intensity ratios to adequate
# (§11) TNF-α Full blots are presented in next 4 figures. […]
# (§12) cells after treatment with 50, 100 µM 2HF for 48h.
# (§13) Raf-1 Raf-1 Cells were plated in complete growth medium. After overnight, cells were treated with different doses of 2HF, […]
# (§14) loaded on 4- 12% bis-tris gel, with 1X MES gel running p-MEK-1 p-MEK-1 buffer. Proteins were transferred to nitrocellulose membrane, nonspecific binding was done in 1X clear
# (§15) All primary antibodies were from (mouse monoclonal, MEKK15 MEKK15 except TNF-α (American Hamster), Santacruze
# (§16) 1.0 0.9 0.1 ND ND ND overnight in 40C. Secondary antibody from Santacruze Biotech (1:2000) for 1h at room temperature in 1X clear […]
# B16-F0 cells = experiment: Western blot densitometry of whole-cell lysates, B16-F0; type: cell-based, mouse; settings: 48 h
# Experimental: B16-F0, […], and SK-MEL-24 cells were treated for 24 h with vehicle, 50 µM, and 100 µM 2HF. Cells were harvested and lysates prepared for Western blot using a radioimmunoprecipitation assay (RIPA) buffer with a protease (complete ULTRA) and phosphatase inhibitor (PhosSTOP) cocktail (Sigma-Aldrich, St. Louis, MO, USA). Total cell lysates (25 µg/lane) were loaded on 4–12% bis-tris gels, with MES gel running buffer. Proteins were transferred to nitrocellulose membrane, and nonspecific binding was minimized with 1× clear milk blocking buffer +0.1%TWEEN 20 (ThermoFisher Scientific, Waltham, MA, USA) for 1 h at room temperature. All primary antibodies were purchased from Santa Cruz Biotechnology except mouse monoclonal, TNF-α (Invitrogen), (1:1000), in 1× clear milk +0.1% TWEEN 20 overnight at 4 °C. Secondary antibody from Santa Cruz Biotech (1:2000) was incubated for 1 h at room temperature in 1× clear milk, 0.1% TWEEN 20.
# as §1, §2, §3, §4, §5, §6, §7, §8, §9, §10, §11, §12, §13, §14, §15, §16
# [1] = Blood counts and serum chemistry after topical 2HF; type: in vivo, B16-F0 melanoma-bearing C57B mice; settings: topical 12 mg 2HF/0.1 mL PLO gel
# Experimental: Blood samples were collected from representative mice from the control and 2HF-treated with 12 mg/0.1 mL PLO gel topically each day for 8 weeks just before euthanasia. These samples were used for hematologic, hepatic, renal, and metabolic profiling. A Hemavet instrument (Drew Scientific, Dallas, TX, USA) was used for determination of hematologic parameters.
smiles,measurement,setting,value
"O=C1CC(c2ccccc2O)Oc2ccccc21 (stereo not shown) [2HF, 2′-hydroxyflavanone]",Active caspase 3 band intensity ratio to control (normalized against β-Actin),"B16-F10 cells; B16F10, 50 µM 2HF",1.0
same,C-terminal cleaved PARP~89kDa band intensity ratio to control (normalized against β-Actin),"B16-F10 cells; B16F10, 50 µM 2HF",1.1
same,N-terminal cleaved PARP~24kDa band intensity ratio to control (normalized against β-Actin),"B16-F10 cells; B16F10, 50 µM 2HF",1.1
same,PARP-1 band intensity ratio to control (normalized against β-Actin),"B16-F10 cells; B16F10, 50 µM 2HF",1.0
same,Procaspase 3 band intensity ratio to control (normalized against β-Actin),"B16-F10 cells; B16F10, 50 µM 2HF",0.9
same,RAL BP-1 band intensity ratio to control (normalized against β-Actin),"B16-F10 cells; B16F10, 50 µM 2HF",0.5
same,Raf-1 band intensity ratio to control (normalized against β-Actin),"B16-F10 cells; B16F10, 50 µM 2HF",0.5
same,PKC α band intensity ratio to control (normalized against β-Actin),"B16-F10 cells; B16F10, 100 µM 2HF",0.2
same,Procaspase 3 band intensity ratio to control (normalized against β-Actin),"B16-F10 cells; B16F10, 100 µM 2HF",0.1
same,TNF-α band intensity ratio to control (normalized against β-Actin),"B16-F10 cells; B16F10, 100 µM 2HF",0.3
same,Active caspase 3 band intensity ratio to control (normalized against β-Actin),"B16-F0 cells; B16F0, 50 µM 2HF",0.9
same,C-terminal cleaved PARP~89kDa band intensity ratio to control (normalized against β-Actin),"B16-F0 cells; B16F0, 50 µM 2HF",0.9
same,MEKK15 band intensity ratio to control (normalized against β-Actin),"B16-F0 cells; B16F0, 50 µM 2HF",1.0
same,N-terminal cleaved PARP~24kDa band intensity ratio to control (normalized against β-Actin),"B16-F0 cells; B16F0, 50 µM 2HF",0.9
same,PARP-1 band intensity ratio to control (normalized against β-Actin),"B16-F0 cells; B16F0, 50 µM 2HF",0.9
same,PKC α band intensity ratio to control (normalized against β-Actin),"B16-F0 cells; B16F0, 50 µM 2HF",0.6
same,Procaspase 3 band intensity ratio to control (normalized against β-Actin),"B16-F0 cells; B16F0, 50 µM 2HF",1.0
same,RAL BP-1 band intensity ratio to control (normalized against β-Actin),"B16-F0 cells; B16F0, 50 µM 2HF",0.9
same,Raf-1 band intensity ratio to control (normalized against β-Actin),"B16-F0 cells; B16F0, 50 µM 2HF",0.2
same,TNF-α band intensity ratio to control (normalized against β-Actin),"B16-F0 cells; B16F0, 50 µM 2HF",0.4
same,p-MEK-1 band intensity ratio to control (normalized against β-Actin),"B16-F0 cells; B16F0, 50 µM 2HF",0.8
same,p-PDGFR-β band intensity ratio to control (normalized against β-Actin),"B16-F0 cells; B16F0, 50 µM 2HF",0.3
same,Active caspase 3 band intensity ratio to control (normalized against β-Actin),"B16-F0 cells; B16F0, 100 µM 2HF",0.1
same,MEKK15 band intensity ratio to control (normalized against β-Actin),"B16-F0 cells; B16F0, 100 µM 2HF",4.7
same,N-terminal cleaved PARP~24kDa band intensity ratio to control (normalized against β-Actin),"B16-F0 cells; B16F0, 100 µM 2HF",0.1
same,PARP-1 band intensity ratio to control (normalized against β-Actin),"B16-F0 cells; B16F0, 100 µM 2HF",0.8
same,PKC α band intensity ratio to control (normalized against β-Actin),"B16-F0 cells; B16F0, 100 µM 2HF",0.2
same,Procaspase 3 band intensity ratio to control (normalized against β-Actin),"B16-F0 cells; B16F0, 100 µM 2HF",0.5
same,RAL BP-1 band intensity ratio to control (normalized against β-Actin),"B16-F0 cells; B16F0, 100 µM 2HF",0.3
same,p-MEK-1 band intensity ratio to control (normalized against β-Actin),"B16-F0 cells; B16F0, 100 µM 2HF",0.8
same,"adverse effects on blood counts, renal function, or liver enzymes",[1],no adverse effects
